± gives the expanded uncertainty stated by the source.

For data set [1] the following is noted: DTA.
The nature of data set [2]: Molar enthalpy of transition or fusion. As to conditions: DSC.

With `CC(C)NCC(O)COc1ccc(CC(N)=O)cc1` (stereo not given) [2-(4-(2-hydroxy-3-(isopropylamino)propoxy)phenyl)acetamide], in data set [1] (Crystal), the Normal melting temperature was 152.8 ± 0.5 °C. The “Molar enthalpy of transition or fusion” value in data set [2] (Crystal) is 37.6 ± 1 kJ/mol.

On to `COc1ccccc1OCC(O)COC(N)=O` (stereo not given) [2-hydroxy-3-(2-methoxyphenoxy)propyl carbamate], for which the Normal melting temperature in data set [1] (Crystal) was determined as 95.4 ± 0.5 °C. The Glass transition temperature in data set [1] amounted to 3.2 ± 0.5 °C. Also, in data set [2] (Crystal), the “Molar enthalpy of transition or fusion” value stood at 38.6 ± 1.1 kJ/mol.

Regarding `Cc1ccccc1OCC(O)CO` (stereo not given) [3-(2-methylphenoxy)-1,2-propanediol], the Normal melting temperature in data set [1] (Crystal 1) turned out to be 70.0 ± 0.5 °C. In addition, the Glass transition temperature in data set [1] is -34.5 ± 0.5 °C. Moreover, in data set [2] (Crystal 1), the “Molar enthalpy of transition or fusion” value is 29.8 ± 0.9 kJ/mol.

As to `COc1ccc2cc([C@H](C)C(=O)O)ccc2c1` [(S)-(+)-naproxen], the Normal melting temperature in data set [1] (Crystal) was 153.6 ± 0.5 °C. Moreover, the “Molar enthalpy of transition or fusion” value in data set [2] (Crystal) amounted to 29 ± 0.8 kJ/mol.

In the case of `CC(=O)Nc1ccc(O)cc1` [N-acetyl-p-aminophenol], the Normal melting temperature in data set [1] (Crystal 1) was found to be 169.2 ± 0.5 °C; in data set [1] (Metastable crystal), 156.7 ± 0.5 °C. In addition, the Glass transition temperature in data set [1] stood at 21.2 ± 0.5 °C. Besides, the entries for the “Molar enthalpy of transition or fusion” value in data set [2] (Crystal 1) and in data set [2] (Metastable crystal) were 26 ± 0.8 kJ/mol and 24.9 ± 0.7 kJ/mol, respectively.

These data come from the NIST ThermoML archive (doi:10.1016/j.tca.2013.10.035).
